Experimental data from PubChem BioAssay (NCI).
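Grown in 96-well plates, cells were treated for 48 hours with each compound at five concentrations. Insufficient inhibition: endpoint recorded as highest concentration tested. Definition used: TGI = concentration required for complete inhibition of growth.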

How the values were obtained:
Experiment in all cases: growth of human tumour cells (NCI), 48 h
786-0 renal = system: 786-0 renal
A498 renal = system: A498 renal
A549 NSCLC = system: A549 NSCLC
ACHN renal = system: ACHN renal
BT-549 breast = system: BT-549 breast
CAKI-1 renal = system: CAKI-1 renal
COLO 205 colon = system: COLO 205 colon
DLD-1 colon = system: DLD-1 colon
DMS 114 small cell lung = system: DMS 114 small cell lung
DMS 273 small cell lung = system: DMS 273 small cell lung
DU-145 prostate = system: DU-145 prostate
EKVX NSCLC = system: EKVX NSCLC
HCC-2998 colon = system: HCC-2998 colon
HCT-116 colon = system: HCT-116 colon
HCT-15 colon = system: HCT-15 colon
HL-60(TB) leukemia = system: HL-60(TB) leukemia
HOP-18 NSCLC = system: HOP-18 NSCLC
HOP-62 NSCLC = system: HOP-62 NSCLC
HOP-92 NSCLC = system: HOP-92 NSCLC
HS 578T breast = system: HS 578T breast
HT29 colon = system: HT29 colon
IGROV1 ovarian = system: IGROV1 ovarian
K-562 leukemia = system: K-562 leukemia
KM12 colon = system: KM12 colon
KM20L2 colon = system: KM20L2 colon
LOX IMVI melanoma = system: LOX IMVI melanoma
LXFL 529 NSCLC = system: LXFL 529 NSCLC
M14 melanoma = system: M14 melanoma
MALME-3M melanoma = system: MALME-3M melanoma
MCF7 breast = system: MCF7 breast
MDA-MB-231 breast = system: MDA-MB-231 breast
MDA-MB-435 = system: MDA-MB-435
MDA-N = system: MDA-N
MOLT-4 leukemia = system: MOLT-4 leukemia
NCI-H226 lung = system: NCI-H226 lung
NCI-H23 lung = system: NCI-H23 lung
NCI-H460 lung = system: NCI-H460 lung
NCI-H522 lung = system: NCI-H522 lung
NCI/ADR-RES ovarian = system: NCI/ADR-RES ovarian
OVCAR-3 ovarian = system: OVCAR-3 ovarian
OVCAR-4 ovarian = system: OVCAR-4 ovarian
OVCAR-5 ovarian = system: OVCAR-5 ovarian
OVCAR-8 ovarian = system: OVCAR-8 ovarian
PC-3 prostate = system: PC-3 prostate
RPMI-8226 leukemia = system: RPMI-8226 leukemia
RXF 393 renal = system: RXF 393 renal
RXF-631 renal = system: RXF-631 renal
SF-268 CNS = system: SF-268 CNS
SF-295 CNS = system: SF-295 CNS
SF-539 CNS = system: SF-539 CNS
SK-MEL-2 melanoma = system: SK-MEL-2 melanoma
SK-MEL-28 melanoma = system: SK-MEL-28 melanoma
SK-MEL-5 melanoma = system: SK-MEL-5 melanoma
SK-OV-3 ovarian = system: SK-OV-3 ovarian
SN12C renal = system: SN12C renal
SNB-19 CNS = system: SNB-19 CNS
SNB-75 CNS = system: SNB-75 CNS
SW-620 colon = system: SW-620 colon
T-47D breast = system: T-47D breast
TK-10 renal = system: TK-10 renal
U251 CNS = system: U251 CNS
UACC-257 melanoma = system: UACC-257 melanoma
UACC-62 melanoma = system: UACC-62 melanoma
UO-31 renal = system: UO-31 renal
XF 498 CNS = system: XF 498 CNS
CCRF-CEM leukemia = system: CCRF-CEM leukemia
M19-MEL melanoma = system: M19-MEL melanoma
SNB-78 CNS = system: SNB-78 CNS

In the case of `Cn1c2ccccc2c(=O)c2c(O)cc3c(c21)CC(C1(C)CO1)O3` (stereo not given), the TGI (786-0 renal) is reported as 5.06 µM, the TGI (A498 renal) is reported as 33.9 µM and the TGI (A549 NSCLC) is reported as 28.2 µM. The TGI (ACHN renal) was 5.73 µM, the TGI (BT-549 breast) was 4.5 µM and the TGI (CAKI-1 renal) was 17.9 µM. It also gave a TGI (COLO 205 colon) of 19.7 µM, a TGI (DLD-1 colon) of 26.1 µM and a TGI (DMS 114 small cell lung) of 5.11 µM. It also gave a TGI (DMS 273 small cell lung) of 49.2 µM, a TGI (DU-145 prostate) of 36.1 µM and a TGI (EKVX NSCLC) of 14 µM. It also gave a TGI (HCC-2998 colon) of 5.4 µM, a TGI (HCT-116 colon) of 3.06 µM and a TGI (HCT-15 colon) of 30.6 µM. For the same molecule, the TGI (HL-60(TB) leukemia) was 2.32 µM, the TGI (HOP-18 NSCLC) was > 93.2 µM and the TGI (HOP-62 NSCLC) was 11.3 µM. For the same molecule, the TGI (HOP-92 NSCLC) was 30.8 µM, the TGI (HS 578T breast) was 5.31 µM and the TGI (HT29 colon) was 20 µM. It also gave a TGI (IGROV1 ovarian) of 26.9 µM, a TGI (K-562 leukemia) of 7.84 µM and a TGI (KM12 colon) of 6.52 µM. It also gave a TGI (KM20L2 colon) of 31.8 µM, a TGI (LOX IMVI melanoma) of 0.0613 µM and a TGI (LXFL 529 NSCLC) of 1.5 µM. It also gave a TGI (M14 melanoma) of 2.93 µM, a TGI (MALME-3M melanoma) of 28.4 µM and a TGI (MCF7 breast) of 1.89 µM. The TGI (MDA-MB-231 breast) was 5.85 µM, the TGI (MDA-MB-435) was 3.07 µM and the TGI (MDA-N) was 2.73 µM. For the same molecule, the TGI (MOLT-4 leukemia) was 1.45 µM, the TGI (NCI-H226 lung) was 32 µM and the TGI (NCI-H23 lung) was 4.14 µM. It also gave a TGI (NCI-H460 lung) of 13.6 µM, a TGI (NCI-H522 lung) of 9.79 µM and a TGI (NCI/ADR-RES ovarian) of 3.2 µM. The TGI (OVCAR-3 ovarian) was 12.9 µM, the TGI (OVCAR-4 ovarian) was 31.2 µM and the TGI (OVCAR-5 ovarian) was 23.4 µM. For the same molecule, the TGI (OVCAR-8 ovarian) was 2.51 µM, the TGI (PC-3 prostate) was 14.2 µM and the TGI (RPMI-8226 leukemia) was 22.6 µM. For the same molecule, the TGI (RXF 393 renal) was 2.85 µM, the TGI (RXF-631 renal) was > 33.6 µM and the TGI (SF-268 CNS) was 4.11 µM. For the same molecule, the TGI (SF-295 CNS) was 39.2 µM, the TGI (SF-539 CNS) was 10.8 µM and the TGI (SK-MEL-2 melanoma) was 2.32 µM. It also gave a TGI (SK-MEL-28 melanoma) of 7.59 µM, a TGI (SK-MEL-5 melanoma) of 3.88 µM and a TGI (SK-OV-3 ovarian) of 24.1 µM. It also gave a TGI (SN12C renal) of 3.77 µM, a TGI (SNB-19 CNS) of 26.9 µM and a TGI (SNB-75 CNS) of 24 µM. It also gave a TGI (SW-620 colon) of 3.38 µM, a TGI (T-47D breast) of 24.9 µM and a TGI (TK-10 renal) of 42 µM. The TGI (U251 CNS) was 11.7 µM, the TGI (UACC-257 melanoma) was 13.1 µM and the TGI (UACC-62 melanoma) was 4.9 µM. It also gave a TGI (UO-31 renal) of 4.09 µM and a TGI (XF 498 CNS) of 4.73 µM.
With `CC1=NN2C(c3ccc(C)cc3)=CSC2=NC(C)(C)C1` the TGI (786-0 renal) was > 100 µM, the TGI (A498 renal) was > 100 µM and the TGI (A549 NSCLC) was > 100 µM. The TGI (ACHN renal) was > 100 µM, the TGI (CCRF-CEM leukemia) was > 100 µM and the TGI (COLO 205 colon) was > 100 µM. For the same molecule, the TGI (DLD-1 colon) was > 100 µM, the TGI (DMS 114 small cell lung) was > 100 µM and the TGI (EKVX NSCLC) was > 100 µM. The TGI (HCC-2998 colon) was > 100 µM, the TGI (HCT-116 colon) was > 100 µM and the TGI (HCT-15 colon) was > 100 µM. For the same molecule, the TGI (HL-60(TB) leukemia) was > 100 µM, the TGI (HOP-18 NSCLC) was > 100 µM and the TGI (HOP-62 NSCLC) was > 100 µM. For the same molecule, the TGI (HOP-92 NSCLC) was > 100 µM, the TGI (HT29 colon) was > 100 µM and the TGI (IGROV1 ovarian) was > 100 µM. The TGI (K-562 leukemia) was > 100 µM, the TGI (KM12 colon) was > 100 µM and the TGI (KM20L2 colon) was > 100 µM. For the same molecule, the TGI (LOX IMVI melanoma) was > 100 µM, the TGI (LXFL 529 NSCLC) was > 100 µM and the TGI (M14 melanoma) was > 100 µM. The TGI (M19-MEL melanoma) was > 100 µM, the TGI (MALME-3M melanoma) was > 100 µM and the TGI (MOLT-4 leukemia) was > 100 µM. For the same molecule, the TGI (NCI-H226 lung) was > 100 µM, the TGI (NCI-H23 lung) was > 100 µM and the TGI (NCI-H460 lung) was > 100 µM. The TGI (NCI-H522 lung) was > 100 µM, the TGI (OVCAR-3 ovarian) was > 100 µM and the TGI (OVCAR-4 ovarian) was > 100 µM. For the same molecule, the TGI (OVCAR-5 ovarian) was > 100 µM, the TGI (OVCAR-8 ovarian) was > 100 µM and the TGI (RPMI-8226 leukemia) was > 100 µM. For the same molecule, the TGI (RXF 393 renal) was > 100 µM, the TGI (SF-268 CNS) was > 100 µM and the TGI (SF-295 CNS) was > 100 µM. The TGI (SF-539 CNS) was > 100 µM, the TGI (SK-MEL-2 melanoma) was > 100 µM and the TGI (SK-MEL-28 melanoma) was > 100 µM. The TGI (SK-MEL-5 melanoma) was > 100 µM, the TGI (SK-OV-3 ovarian) was > 100 µM and the TGI (SN12C renal) was > 100 µM. The TGI (SNB-19 CNS) was > 100 µM, the TGI (SNB-75 CNS) was > 100 µM and the TGI (SNB-78 CNS) was > 100 µM. The TGI (SW-620 colon) was > 100 µM, the TGI (TK-10 renal) was > 100 µM and the TGI (U251 CNS) was > 100 µM. The TGI (UACC-257 melanoma) was > 100 µM, the TGI (UACC-62 melanoma) was > 100 µM and the TGI (UO-31 renal) was > 100 µM. For the same molecule, the TGI (XF 498 CNS) was > 100 µM.
